Data set [1] in a line: Head-to-tail native chemical ligation in two-module microfluidic flow: SEAon peptide amide rearranged to SEAE thioester (pH 1, TCEP, 60 min, 90 or 65 C), then MPAA (0.4 M)/Na2HPO4 (0.2 M) pH 7.3 cyclisation onto N-terminal Cys. As to conditions: water (phosphate buffer, MPAA, TCEP; decane segmented carrier; 6 M Gn.HCl for 4l-p), 0.6 mM, 37.0 °C, 2 steps.
Data set [2] can be described thus: Head-to-tail native chemical ligation in two-module microfluidic flow: SEAon peptide amide rearranged to SEAE thioester (pH 1, TCEP, 60 min, 90 or 65 C), then MPAA (0.4 M)/Na2HPO4 (0.2 M) pH 7.3 cyclisation onto N-terminal Cys, 4 min. The note with it: 30-membered ring, water (phosphate buffer, MPAA, TCEP; decane segmented carrier), 0.6 mM, 37.0 °C, 0.067 h, 2 steps, scale: %.

Setting [3] is: the molecule shown is the open-chain precursor, 54-membered ring, 0.25 h.

As for `CC[C@H](C)[C@@H]1NC(=O)[C@H](CS)NC(=O)[C@H](C(C)C)NC(=O)CNC(=O)[C@H](Cc2c[nH]cn2)NC(=O)[C@H](C(C)C)NC(=O)CNC(=O)[C@H](CCC(=O)O)NC(=O)[C@H](CCCCN)NC(=O)[C@H](CC(C)C)NC1=O` [H-CILKEGVHGV-SEAon (via SEAE thioester)], the ring closure, yield over several steps in data set [1] (from CC[C@H](C)[C@H](NC(=O)[C@@H](N)CS)C(=O)N[C@@H](CC(C)C)C(=O)N[C@@H](CCCCN)C(=O)N[C@@H](CCC(=O)O)C(=O)NCC(=O)N[C@H](C(=O)N[C@@H](Cc1c[nH]cn1)C(=O)NCC(=O)N[C@H](C(=O)SCCNCCS)C(C)C)C(C)C, 30-membered ring, 0.067 h) stood at 46%. Besides, the ring closure, conversion by HPLC in data set [2] (from CC[C@H](C)[C@H](NC(=O)[C@@H](N)CS)C(=O)N[C@@H](CC(C)C)C(=O)N[C@@H](CCCCN)C(=O)N[C@@H](CCC(=O)O)C(=O)NCC(=O)N[C@H](C(=O)N[C@@H](Cc1c[nH]cn1)C(=O)NCC(=O)N[C@H](C(=O)SCCNCCS)C(C)C)C(C)C) amounted to 73.
Molecule “H-CTRGFCRCLCRRGVCRCI-SEAon (via SEAE thioester)” gave a ring closure, yield over several steps in data set [1] (setting [3]) of 34%.
“H-CRCLCRRGVCRCICTRGF-SEAon (via SEAE thioester)” had a ring closure, yield over several steps in data set [1] (setting [3]) of 23%.
Molecule `CC[C@H](C)[C@@H]1NC(=O)[C@H](CS)NC(=O)[C@H](C(C)C)NC(=O)CNC(=O)[C@H](Cc2c[nH]cn2)NC(=O)[C@H](C(C)C)NC(=O)[C@@H]2CCCN2C(=O)[C@H](CCC(=O)O)NC(=O)[C@H](CCCCN)NC(=O)[C@H](CC(C)C)NC1=O` [H-CILKEPVHGV-SEAon (via SEAE thioester)] yielded a ring closure, yield over several steps in data set [1] (from CC[C@H](C)[C@H](NC(=O)[C@@H](N)CS)C(=O)N[C@@H](CC(C)C)C(=O)N[C@@H](CCCCN)C(=O)N[C@@H](CCC(=O)O)C(=O)N1CCC[C@H]1C(=O)N[C@H](C(=O)N[C@@H](Cc1c[nH]cn1)C(=O)NCC(=O)N[C@H](C(=O)SCCNCCS)C(C)C)C(C)C, 30-membered ring, 0.067 h) of 46%. Besides, the ring closure, conversion by HPLC in data set [2] (from CC[C@H](C)[C@H](NC(=O)[C@@H](N)CS)C(=O)N[C@@H](CC(C)C)C(=O)N[C@@H](CCCCN)C(=O)N[C@@H](CCC(=O)O)C(=O)N1CCC[C@H]1C(=O)N[C@H](C(=O)N[C@@H](Cc1c[nH]cn1)C(=O)NCC(=O)N[C@H](C(=O)SCCNCCS)C(C)C)C(C)C) is 56.
With “H-CQPWSSMIPHEHSFLPSSYRGKDLQENY-SEAon (via SEAE thioester)”, the ring closure, yield over several steps in data set [1] (the molecule shown is the open-chain precursor, 84-membered ring, 0.25 h) worked out at 41%.
For the molecule `CC[C@H](C)[C@@H]1NC(=O)[C@H](CS)NC(=O)[C@@H]2CCCN2C(=O)CNC(=O)[C@H](Cc2c[nH]cn2)NC(=O)[C@H](C(C)C)NC(=O)CNC(=O)[C@H](CCC(=O)O)NC(=O)[C@H](CCCCN)NC(=O)[C@H](CC(C)C)NC1=O` [H-CILKEGVHGP-SEAon (via SEAE thioester)], the ring closure, yield over several steps in data set [1] (from CC[C@H](C)[C@H](NC(=O)[C@@H](N)CS)C(=O)N[C@@H](CC(C)C)C(=O)N[C@@H](CCCCN)C(=O)N[C@@H](CCC(=O)O)C(=O)NCC(=O)N[C@H](C(=O)N[C@@H](Cc1c[nH]cn1)C(=O)NCC(=O)N1CCC[C@H]1C(=O)SCCNCCS)C(C)C, 30-membered ring, 0.067 h) is 38%. Further, the ring closure, conversion by HPLC in data set [2] (from CC[C@H](C)[C@H](NC(=O)[C@@H](N)CS)C(=O)N[C@@H](CC(C)C)C(=O)N[C@@H](CCCCN)C(=O)N[C@@H](CCC(=O)O)C(=O)NCC(=O)N[C@H](C(=O)N[C@@H](Cc1c[nH]cn1)C(=O)NCC(=O)N1CCC[C@H]1C(=O)SCCNCCS)C(C)C) came to 70.
In data set [1] (from CC[C@H](C)[C@H](NC(=O)[C@@H](N)CS)C(=O)N[C@@H](CC(C)C)C(=O)N[C@@H](CC(=O)O)C(=O)NCC(=O)N1CCC[C@H]1C(=O)N[C@H](C(=O)N[C@@H](Cc1c[nH]cn1)C(=O)NCC(=O)N[C@@H](CC(C)C)C(=O)SCCNCCS)C(C)C, 30-membered ring, 0.067 h), `CC[C@H](C)[C@@H]1NC(=O)[C@H](CS)NC(=O)[C@H](CC(C)C)NC(=O)CNC(=O)[C@H](Cc2c[nH]cn2)NC(=O)[C@H](C(C)C)NC(=O)[C@@H]2CCCN2C(=O)CNC(=O)[C@H](CC(=O)O)NC(=O)[C@H](CC(C)C)NC1=O` [H-CILDGPVHGL-SEAon (via SEAE thioester)] returned a ring closure, yield over several steps of 64%. This molecule also returned a ring closure, conversion by HPLC in data set [2] (from CC[C@H](C)[C@H](NC(=O)[C@@H](N)CS)C(=O)N[C@@H](CC(C)C)C(=O)N[C@@H](CC(=O)O)C(=O)NCC(=O)N1CCC[C@H]1C(=O)N[C@H](C(=O)N[C@@H](Cc1c[nH]cn1)C(=O)NCC(=O)N[C@@H](CC(C)C)C(=O)SCCNCCS)C(C)C) of 80.
Regarding “H-CRCICTRGFCRCLCRRGV-SEAon (via SEAE thioester)”, the ring closure, yield over several steps in data set [1] (setting [3]) is 29%.
“H-CRAIATRGFARALARRGV-SEAon (via SEAE thioester)” yielded a ring closure, yield over several steps in data set [1] (the molecule shown is the open-chain precursor, 54-membered ring, 0.067 h) of 37%.
The molecule `CC[C@H](C)[C@@H]1NC(=O)[C@H](CS)NC(=O)[C@H]([C@@H](C)O)NC(=O)CNC(=O)[C@H](Cc2c[nH]cn2)NC(=O)[C@H](C(C)C)NC(=O)CNC(=O)[C@H](CCC(=O)O)NC(=O)[C@H](CCCCN)NC(=O)[C@H](CC(C)C)NC1=O` [H-CILKEGVHGT-SEAon (via SEAE thioester)] showed a ring closure, yield over several steps in data set [1] (from CC[C@H](C)[C@H](NC(=O)[C@@H](N)CS)C(=O)N[C@@H](CC(C)C)C(=O)N[C@@H](CCCCN)C(=O)N[C@@H](CCC(=O)O)C(=O)NCC(=O)N[C@H](C(=O)N[C@@H](Cc1c[nH]cn1)C(=O)NCC(=O)N[C@H](C(=O)SCCNCCS)[C@@H](C)O)C(C)C, 30-membered ring, 0.067 h) of 49%. In data set [2] (from CC[C@H](C)[C@H](NC(=O)[C@@H](N)CS)C(=O)N[C@@H](CC(C)C)C(=O)N[C@@H](CCCCN)C(=O)N[C@@H](CCC(=O)O)C(=O)NCC(=O)N[C@H](C(=O)N[C@@H](Cc1c[nH]cn1)C(=O)NCC(=O)N[C@H](C(=O)SCCNCCS)[C@@H](C)O)C(C)C), this molecule yielded a ring closure, conversion by HPLC of 73.
In turn, `CC[C@H](C)[C@@H]1NC(=O)CNC(=O)[C@H](Cc2c[nH]cn2)NC(=O)[C@H](C(C)C)NC(=O)CNC(=O)[C@H](CCC(=O)O)NC(=O)[C@H](CCCCN)NC(=O)[C@H](CC(C)C)NC(=O)[C@H]([C@@H](C)CC)NC(=O)[C@H](CS)NC1=O` [H-CILKEGVHGI-SEAon (via SEAE thioester)] showed a ring closure, yield over several steps in data set [1] (from CC[C@H](C)[C@H](NC(=O)[C@@H](N)CS)C(=O)N[C@@H](CC(C)C)C(=O)N[C@@H](CCCCN)C(=O)N[C@@H](CCC(=O)O)C(=O)NCC(=O)N[C@H](C(=O)N[C@@H](Cc1c[nH]cn1)C(=O)NCC(=O)N[C@H](C(=O)SCCNCCS)[C@@H](C)CC)C(C)C, 30-membered ring, 0.067 h) of 51%. This molecule returned a ring closure, conversion by HPLC in data set [2] (from CC[C@H](C)[C@H](NC(=O)[C@@H](N)CS)C(=O)N[C@@H](CC(C)C)C(=O)N[C@@H](CCCCN)C(=O)N[C@@H](CCC(=O)O)C(=O)NCC(=O)N[C@H](C(=O)N[C@@H](Cc1c[nH]cn1)C(=O)NCC(=O)N[C@H](C(=O)SCCNCCS)[C@@H](C)CC)C(C)C) of 96.
As to `CC[C@H](C)[C@@H]1NC(=O)[C@H](CS)NC(=O)[C@H](C(C)C)NC(=O)CNC(=O)[C@H](Cc2c[nH]cn2)NC(=O)[C@H](C(C)C)NC(=O)[C@@H]2CCCN2C(=O)CNC(=O)[C@H](CC(N)=O)NC(=O)[C@H](CC(C)C)NC1=O` [H-CILNGPVHGV-SEAon (via SEAE thioester)], the ring closure, yield over several steps in data set [1] (from CC[C@H](C)[C@H](NC(=O)[C@@H](N)CS)C(=O)N[C@@H](CC(C)C)C(=O)N[C@@H](CC(N)=O)C(=O)NCC(=O)N1CCC[C@H]1C(=O)N[C@H](C(=O)N[C@@H](Cc1c[nH]cn1)C(=O)NCC(=O)N[C@H](C(=O)SCCNCCS)C(C)C)C(C)C, 30-membered ring, 0.067 h) is 66%. The ring closure, conversion by HPLC in data set [2] (from CC[C@H](C)[C@H](NC(=O)[C@@H](N)CS)C(=O)N[C@@H](CC(C)C)C(=O)N[C@@H](CC(N)=O)C(=O)NCC(=O)N1CCC[C@H]1C(=O)N[C@H](C(=O)N[C@@H](Cc1c[nH]cn1)C(=O)NCC(=O)N[C@H](C(=O)SCCNCCS)C(C)C)C(C)C) was determined as 63.

Values taken from PMC6054628.
